pIC50: −log10 of the molar value. Activity calls are given as the source filed them. The rule behind the calls is not given here.
Assays:
[1] = test system: A-427; assay: Antiproliferative activity against human A-427 cells harboring KRAS G12D mutant assessed as inhibition of cell growth incubated for 72 hrs by MTT assay; type: functional, cell-based; settings: A-427, 72 h
[2] = test system: PC-3; assay: Induction of cell cycle arrest in human PC-3 cells assessed as accumulation of cells at G2 phase at 0.5 uM by PI staining based flow cytometry (reference value: 7.75%); type: functional
[3] = test system: PC-3; assay: Induction of apoptosis in human PC-3 cells assessed as early apoptotic cells at 0.5 uM by Annexin V-FITC staining based flow cytometry (reference value: 2.64%); type: functional
[4] = test system: HUVEC; assay: Antiangiogenic activity in HUVEC cells assessed as reduction in total branching length at 0.5 to 12.5 uM incubated for 8 hrs by matrigel based microscopic analysis; type: functional, cell-based; settings: Homo sapiens, dose 0.5-12.5 µM
[5] = test system: HepG2; assay: Antiproliferative activity against human HepG2 cells assessed as inhibition of cell growth incubated for 72 hrs by MTT assay; type: functional, cell-based
[6] = test system: PC-3; assay: Induction of apoptosis in human PC-3 cells assessed as early apoptotic cells at 2.5 uM by Annexin V-FITC staining based flow cytometry (reference value: 2.64%); type: functional
[7] = molecular target: T1, Son of sevenless homolog 1 (Homo sapiens) (UniProt Q07889); assay: Inhibition of SOS1 in human PC-3 cells assessed as downregulation of ERK phosphorylation at 2.5 uM incubated for 15 mins by Western blotting analysis; type: cell-based
T1 sequence (whole entry): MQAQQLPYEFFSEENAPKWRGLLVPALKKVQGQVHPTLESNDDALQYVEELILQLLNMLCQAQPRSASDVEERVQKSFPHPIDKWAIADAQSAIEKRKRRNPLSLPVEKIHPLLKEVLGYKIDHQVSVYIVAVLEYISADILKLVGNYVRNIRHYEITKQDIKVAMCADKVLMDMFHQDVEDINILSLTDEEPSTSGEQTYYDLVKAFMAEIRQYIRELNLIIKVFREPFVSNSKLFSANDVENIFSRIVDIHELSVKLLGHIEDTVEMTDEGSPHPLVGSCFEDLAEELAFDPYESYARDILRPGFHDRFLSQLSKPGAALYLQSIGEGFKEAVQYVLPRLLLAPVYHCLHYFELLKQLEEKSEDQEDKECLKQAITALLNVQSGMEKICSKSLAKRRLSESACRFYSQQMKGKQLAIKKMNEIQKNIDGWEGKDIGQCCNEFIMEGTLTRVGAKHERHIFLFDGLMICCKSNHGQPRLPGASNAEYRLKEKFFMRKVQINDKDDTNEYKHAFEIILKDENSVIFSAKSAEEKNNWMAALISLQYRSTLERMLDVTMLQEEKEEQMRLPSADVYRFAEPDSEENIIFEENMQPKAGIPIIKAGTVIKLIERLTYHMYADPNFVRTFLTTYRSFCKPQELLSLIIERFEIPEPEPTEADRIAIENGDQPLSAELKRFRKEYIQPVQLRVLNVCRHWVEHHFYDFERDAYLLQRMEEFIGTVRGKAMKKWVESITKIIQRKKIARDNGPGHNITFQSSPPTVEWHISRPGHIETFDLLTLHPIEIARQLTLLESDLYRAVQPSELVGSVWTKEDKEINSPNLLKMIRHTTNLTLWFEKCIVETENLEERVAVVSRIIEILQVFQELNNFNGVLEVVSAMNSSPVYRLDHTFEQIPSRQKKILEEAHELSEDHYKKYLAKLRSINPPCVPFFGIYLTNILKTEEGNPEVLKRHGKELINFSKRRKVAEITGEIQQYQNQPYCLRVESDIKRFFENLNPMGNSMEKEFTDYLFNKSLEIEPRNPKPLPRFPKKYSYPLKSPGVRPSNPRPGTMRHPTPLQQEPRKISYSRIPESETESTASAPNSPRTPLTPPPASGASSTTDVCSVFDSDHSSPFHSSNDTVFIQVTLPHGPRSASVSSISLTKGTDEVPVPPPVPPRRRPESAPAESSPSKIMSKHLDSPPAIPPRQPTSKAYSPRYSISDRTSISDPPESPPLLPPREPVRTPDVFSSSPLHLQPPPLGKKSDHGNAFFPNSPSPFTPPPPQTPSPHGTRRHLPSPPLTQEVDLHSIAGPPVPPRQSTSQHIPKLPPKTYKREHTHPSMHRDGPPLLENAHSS

[8] = test system: NCI-H358; assay: Antiproliferative activity against human NCI-H358 cells harboring KRAS G12C mutant assessed as inhibition of cell growth incubated for 72 hrs by MTT assay; type: functional, cell-based; settings: NCI-H358, 72 h
[9] = test system: PC-3; assay: Antiproliferative activity against human PC-3 cells transfected with control shRNA assessed as inhibition of cell growth incubated for 72 hrs by MTT assay; type: functional, cell-based; settings: PC-3, 72 h
[10] = test system: PC-3; assay: Induction of cell cycle arrest in human PC-3 cells assessed as accumulation of cells at G1 phase at 0.5 uM by PI staining based flow cytometry (reference value: 75.66%); type: functional
[11] = test system: PC-3; assay: Antiproliferative activity against human PC-3 cells transfected with SOS1 and EGFR shRNA assessed as inhibition of cell growth incubated for 72 hrs by MTT assay; type: functional, cell-based; settings: PC-3, 72 h
[12] = Toxicity in BALB/c mouse xenografted with human PC-3 cells assessed as change in creatinine level at 5 mg/kg,ip administrated once every 4 days for 24 days by automatic biochemical analyzer; type: organism-based; settings: in vivo, 576 h, time 24 day
[13] = Toxicity in BALB/c mouse xenografted with human PC-3 cells assessed as kidney pathological change at 20 mg/kg,ip administrated once every 4 days for 24 days by hematoxylin and eosin staining based analysis; type: organism-based; settings: in vivo, 576 h, time 24 day
[14] = Toxicity in BALB/c mouse xenografted with human PC-3 cells assessed as change in body weight at 20 mg/kg,ip administrated once every 4 days for 24 days; type: organism-based; settings: in vivo, 576 h, time 24 day
[15] = Toxicity in BALB/c mouse xenografted with human PC-3 cells assessed as change in ALT level at 5 mg/kg,ip administrated once every 4 days for 24 days by automatic biochemical analyzer; type: organism-based; settings: in vivo, 576 h, time 24 day
[16] = test system: PC-3; assay: Antitumor activity against human PC-3 cells xenografted in BALB/c mouse assessed as reduction in tumor weight at 20 mg/kg,ip administrated once every 4 days for 24 days; type: functional, organism-based; settings: time 24.0 day
[17] = test system: PC-3; assay: Induction of apoptosis in human PC-3 cells assessed as viable cells at 0.5 uM by Annexin V-FITC staining based flow cytometry (reference value: 94.9%); type: functional; settings: read-out: Activity
[18] = test system: PC-3; assay: Induction of apoptosis in human PC-3 cells assessed as necrotic cells at 0.5 uM by Annexin V-FITC staining based flow cytometry (reference value: 0.48%); type: functional
[19] = test system: PC-3; assay: Antiproliferative activity against human PC-3 cells transfected with EGFR shRNA assessed as inhibition of cell growth incubated for 72 hrs by MTT assay; type: functional, cell-based; settings: PC-3, 72 h
[20] = test system: HUVEC; assay: Antiangiogenic activity in HUVEC cells assessed as reduction of node at 0.5 to 12.5 uM incubated for 8 hrs by matrigel based microscopic analysis; type: functional, cell-based; settings: Homo sapiens, dose 0.5-12.5 µM
[21] = test system: PC-3; assay: Induction of cell cycle arrest in human PC-3 cells assessed as accumulation of cells at S phase at 2.5 uM by PI staining based flow cytometry (reference value: 16.58%); type: functional

COc1cc2ncnc(N[C@H](C)c3cccc(F)c3)c2cc1OC1CCOCC1
pIC50 [1]: 6.26
Activity [2]: 9.71%
Activity [3]: 11.7%
Activity [4]: Active
Activity [5]: Active
Activity [6]: 17%
inhibition [7]: Active
pIC50 [8]: 6.26
pIC50 [9]: 6.37
Activity [10]: 79.45%
pIC50 [11]: < 5.00
Activity [12]: Non-Toxic
Activity [13]: Toxic
Activity [14]: Toxic
Activity [15]: Non-Toxic
Activity [16]: Active
viability at 0.5 µM [17]: 84.9%
Activity [18]: 0.6%
pIC50 [19]: 5.26
Activity [20]: Active
Activity [21]: 5.5%

— ChEMBL document CHEMBL5543153, “Discovery of a Potent Dual Son of Sevenless 1 (SOS1) and Epidermal Growth Factor Receptor (EGFR) Inhibitor for the Treatment of Prostate Cancer” (J Med Chem, 2024)
